One data set has as its target T1, Rac1 (Homo sapiens, UniProt P63000).
T1 construct: endogenous in cells; host or cells: human cultured smooth muscle cells, stimulated with PDGF-BB
The data set can be described thus: G-LISA assay of intracellular Rac1-GTP in PDGF-BB stimulated human smooth muscle cells. In kind it is cell-based. Particulars: for remaining activity at 50 µM / remaining activity at 100 µM: read-out: Rac1 inhibitory activity (% vs control); for remaining activity at 100 µM: Concentration 100 µm. The text has this:
The intracellular amount of Rac1-GTP has been determined using the GLISA™ assay (Cytoskeleton, Inc). The GLISA™ assay uses a 96-well plate coated with RBD domain of Rac1-family effector protein PAK1. […] A significant inhibition on Rac1 activity should decrease the intracellular levels of Rac1-GTP and therefore reduce the percentage of Rac1-GTP detected compared to control untreated cells.

A short description of data set [1]: PAMPA (Parallel Artificial Membrane Permeability Assay). Type of data set: in vitro ADME. Conditions: start concentration 250 µM, diffusion period 16 h. The procedure:
(§1) The permeation characteristics of the Rac1 inhibitors were determined first in the artificial system PAMPA (Parallel Artificial Membrane Permeability Assay) which uses a membrane covered with a lipid to simulate the lipid bilayer of various cell types, including intestinal epithelium and second in vitro across Caco2, a human colon carcinoma cell line seeded as monolayers onto polycarbonate membranes. The PAMPA is able to predict the ability of a compound to permeate by a passive transcellular transport through an artificial lipid layer assembled on a membrane and also allows a classification into low (flux <20%), medium (20%≤ flux ≤70%), and high (flux >70%) absorbing substances. The Caco2 assay provides a well-established in vitro model to predict the human intestinal absorption.
The flux rate of the compounds of the invention and the reference NSC23766 was measured from a donor compartment to an acceptor compartment across the lipid layer at a start concentration of 250 µM over a diffusion period of 16 h.
For orientation: The PAMPA barrier holds no transporters, so it reflects passive diffusion.

The test system of another data set is HL-1. The data set can be described thus: Resazurine cytotoxicity assay (metabolic activity), HL-1. In kind it is cell-based, mouse. On the procedure:
(§2) For a pre-screening of the compounds they were first tested in human hepatocellular carcinoma cells (HepG2 cells)for 24 h and to gain further information about the cytotoxic potential more specific target tissues like the mouse cardiomyocytes HL-1 and primary rat cardiomyocytes were used additionally. […] The toxicity classification has been determined by using drugs currently utilized in clinic with known toxicity profile

The subject of data set [2] is primary rat cardiomyocytes. Briefly: Resazurine cytotoxicity assay (metabolic activity), primary rat cardiomyocytes. In kind it is cell-based. On the procedure:
as §2
On the technique in general: Resazurin is reduced to fluorescent resorufin, in cell work by metabolically active cells.

The subject of another data set is HepG2 cells. Briefly: Resazurine cytotoxicity assay (metabolic activity), HepG2. In kind it is cell-based, human. Conditions: for toxic classification / MVC / EC50: HepG2, 24 h; for toxic classification: classification in words in the text; for MVC: maximal viability concentration; for Cytotoxicity-Classification: HepG2, 24 h exposure; for EC50: Homo sapiens. The procedure:
as §2

Another data set has as its system Caco2. The data set can be described thus: Caco2 monolayer permeation. Type of data set: in vitro ADME, human. Particulars: Caco2 monolayers, 90 min, start concentration 50 µM. The procedure: as §1
A short description of data set [3]: Caco2 monolayer permeation. In kind it is in vitro ADME, human. Conditions: human, Caco-2, Caco2 monolayers, start concentration 50 µM. On the procedure: as §1
(Caco-2 monolayers are a common model of the intestinal barrier.)

In a further data set the test system is HL-1 cells. Briefly: Apoptosis of ischemic HL-1 cardiomyocytes (TUNEL assay, flow cytometer). In kind it is cell-based, mouse. Conditions: 100 µM; 8 h ischemia (glucose deficient medium + hydrogen peroxide); 8h Ischemia alone 701.6, 8h Control 100. The procedure:
To establish a cardiomyocytes based apoptosis assay, which mimics the post-ischemic damage observed after myocardial infarction, we have utilized a cardiac muscle cell line, HL-1 cells, derived from the AT-1 mouse atrial cardiomyocyte tumor lineage. The HL-1 cells were incubated in glucose deficient medium in the presence of hydrogen peroxide and either in presence or absence of compounds of the invention Apoptosis rate of ischemic HL-1 cells was normalised to the apoptosis rate of the 8h control cells under non-ischemic conditions, thus incubated with normal concentration of glucose in the absence of hydrogen peroxide. Both non-ischemic and ischemic HL-1 cultures were harvested after 8 hours. […] The apoptotic rates were then evaluated by TUNEL assay, a method for detecting DNA strand breaks in apoptotic cells by flow cytometer The solvent of the compounds, i.e DMSO, has no influence on the apoptosis rate. […] Effect of newly synthesized compounds with Rac1 inhibitory activity on apoptosis rate in HL-1 cells normalized to control (TUNEL-assay) The data are representative of two experiments.

Where [4] appears, read: Concentration 50 µm, 4 hours incubation, then PDGF-BB 10 ng/ml, Rac1-GTP detected relative to control (100), lower = more inhibition.
[5] abbreviates: 4 hours incubation, then PDGF-BB 10 ng/ml, Rac1-GTP detected relative to control (100), lower = more inhibition.

Each structure is given as a SMILES string. Where two headings read alike, the source gives them in different places.

For `CCN(CC)CCCC(C)Nc1nccc(Oc2ccc3ccccc3c2)n1` (centres unmarked) [CWB019/01037], the “Remaining Rac1-GTP (% of control)” value at Rac1 (setting [4]) was 101.3%.
On to `CCN(CC)CCCC(C)Nc1nc(C)cc(Oc2ccc3nc(C)ccc3c2)n1` (centres unmarked) [CWB001/01018, N1,N1-Diethyl-N4-[4-methyl-6-(2-methyl-quinolin-6-yloxy)-pyrimidin-2-yl]-pentane-1,4-diamine], for which the remaining activity at 50 µM at Rac1 (setting [4]) is 102%.
As usually defined, the EC50 is the concentration at which the effect is half-maximal. One may read the Papp as the rate of passage across a membrane or cell layer, normalised by area and donor concentration. `COC(=O)C(CC(C)C)Nc1cc(C)nc(Nc2ccc3ncccc3c2)n1` (centres unmarked) [CWB018/01034, 4-Methyl-2-[6-methyl-2-(quinolin-6-ylamino)-pyrimidin-4-ylamino]-pentanoic acid methyl ester]: the PAMPA classification result in data set [1] was “high (high (flux >70%))”. The “PAMPA flux [%] ± SD” value in data set [1] is on record as 85±11%. For the same compound, the “MVC” value in the data set on HL-1 (HL-1, 24 h, maximal viability concentration) came to 15.6 µM; in data set [2] (24 h, maximal viability concentration), 31.2 µM; with HepG2 cells, 62.5 µM. Moreover, the Cytotoxicity-Classification entry with HL-1 (HL-1, 24 h exposure) was “++ (10 µM < EC50 ≤ 100 µM, medium (++))”; in data set [2] (24 h exposure), “++ (10 µM < EC50 ≤ 100 µM, medium (++))”; in the data set with HepG2 cells, “+ (100 µM < EC50 ≤ 500, low (+))”. Besides, the EC50 in the data set on HL-1 (Mus musculus, HL-1, 24 h, metabolic activity) was 68 µM; in data set [2] (Cardiomyocyte, 24 h, metabolic activity) it was 85 µM; in the data set with HepG2 cells (metabolic activity, read-out: EC50), 162 µM. In addition, the remaining activity at 50 µM on Rac1 (setting [4]) is 34.2%. Moreover, the “inhibitory action on Rac1 activity” value at Rac1 (G-LISA, 50 µM, statement in words) was “significant end efficient inhibitory action”. The toxic classification result with HepG2 cells is recorded as “low toxic (low toxic (100 µM < EC50 ≤ 500 µM))”. Besides, the “Caco2 Classification” value in the data set on Caco2 is reported as “high (compounds with a Papp >10 are predicted to be well absorbed (70 - 100%))”. In data set [3], the Papp at 90 min, 50 µM worked out at 20.5 ± 1.9 ×10⁻⁶ cm/s.
For the compound `CCN(CC)CCCNc1nc(C)cc(Oc2ccc3nc(C)ccc3c2)n1` [CWB011/01023, N,N-Diethyl-N'-[4-methyl-6-(2-methyl-quinolin-6-yloxy)-pyrimidin-2-yl]-propane-1,3-diamine], at Rac1 (setting [4]), the remaining activity at 50 µM was 94.8%.
As to `CCN(CC)CCCC(C)Nc1nc(C)cc(NCCc2c[nH]c3ccc(O)cc23)n1` (centres unmarked) [CWB025/02056, 3-{2-[2-(4-Diethylamino-1-methyl-butylamino)-6-methyl-pyrimidin-4-ylamino]-ethyl}-1H-indol-5-ol], on Rac1 (setting [5]), the remaining activity at 100 µM stood at 123%.
Regarding `CCN(CC)CCCC(C)Nc1cc(C)nc(N2CCOCC2)n1` (centres unmarked) [CWB016/02046, N1,N1-Diethyl-N4-(6-methyl-2-morpholin-4-yl-pyrimidin-4-yl)-pentane-1,4-diamine], the remaining activity at 50 µM at Rac1 (setting [4]) turned out to be 93.2%.
Still for that read-out and setting: the value for `CCN(CC)CCCC(C)Nc1nc(C)cc(N2CCCCC2)n1` (centres unmarked) [CWB008/02044, N1,N1-Diethyl-N4-(4-methyl-6-piperidin-1-yl-pyrimidin-2-yl)-pentane-1,4-diamine] was 95.8%.
For the compound `CCN(CC)CCCC(C)Nc1nccc(Nc2ccc3cc[nH]c3c2)n1` (centres unmarked) [CWB023/02053, N2-(4-Diethylamino-1-methyl-butyl)-N4-(1H-indol-6-yl)-pyrimidine-2,4-diamine], the remaining activity at 100 µM on Rac1 (setting [5]) is 98%.
For the compound `CCN(CC)CCCC(C)Nc1nc(C)cc(NCCc2c[nH]c3ccccc23)n1` (centres unmarked) [CWB002/02038, N2-(4-Diethylamino-1-methyl-butyl)-N4-[2-(1H-indol-3-yl)-ethyl)-6-methylpyrimidine-2,4-diamine], at Rac1 (setting [4]), the remaining activity at 50 µM is 109%.
In the case of `CCN(CC)CCCC(C)Nc1cc(C)nc(NCCc2c[nH]c3ccc(O)cc23)n1` (centres unmarked) [CWB027/02058, 3-{2-[4-(4-diethylamino-1-methyl-butylamino)-6-methyl-pyrimidin-2-ylamino]-ethyl}-1H-indol-5-ol], the remaining activity at 100 µM on Rac1 (setting [5]) worked out at 111%.
Take `CCN(CC)CCCC(C)Nc1nc(C)cc(Nc2ccc3ncccc3c2)n1` (centres unmarked) [CWB003/01020, N2-(4-Diethylamino-1-methyl-butyl)-6-methyl-N4-quinolin-6-yl-pyrimidine-2,4-diamine]: the remaining activity at 50 µM on Rac1 (setting [4]) came to 93.8%.
As for `CCN(CC)CCCC(C)Nc1nc(C)cc(N2CCOCC2)n1` (centres unmarked) [CWB007/02040, N1,N1-Diethyl-N4-(4-methyl-6-morpholin-4-yl-pyrimidin-2-yl)-pentane-1,4-diamine], the remaining activity at 50 µM at Rac1 (setting [4]) turned out to be 101%.
On the same count and under the same terms, with `Cc1cc(Nc2ccc3nc(C)cc(O)c3c2)nc(NCCc2c[nH]c3ccccc23)n1` [CWB006/02035, 6-{2-[2-(1H-Indol-3-yl)-ethylamino]-6-methyl-pyrimidin-4-ylamino}-2-methyl-quinolin-4-ol] the figure was 91.5%.
Same read-out and setting: with `CCN(CC)CCCC(C)Nc1nc(C)cc(NCC(=O)O)n1` (centres unmarked) [CWB015/01031, [2-(4-Diethylamino-1-methyl-butylamino)-6-methyl-pyrimidin-4-ylamino]-acetic acid] the figure was 83.9%.
Still for that read-out and setting: with `CCOC(=O)CNc1cc(C)nc(NC(C)CCCN(CC)CC)n1` (centres unmarked) [CWB012/01025, [2-(4-Diethylamino-1-methyl-butylamino)-6-methyl-pyrimidin-4-ylamino]-acetic acid ethyl ester] the figure was 92.9%.
In the case of `CCN(CC)CCCC(C)Nc1nc(C)cc(Nc2ccc3nc(C)cc(N)c3c2)n1` (racemic) [NSC23766, reference compound], in data set [1], the PAMPA classification result is “low (low (flux <20%))” and the “PAMPA flux [%] ± SD” value stood at 11±4%. Besides, the “Relative rate of apoptosis normalised to control [%]” value with HL-1 cells is given as 546.5%. Besides, in the data set with HepG2 cells, the toxic classification entry is “not toxic (not toxic (EC50 > 500 µM))”; the “MVC” value was determined as 31.2 µM; the Cytotoxicity-Classification entry is “no (EC50 > 500 µM, (no))”; the EC50 is greater than 500 µM. Besides, the “Caco2 Classification” value with Caco2 was “medium (compounds with Papp between 1 and 10 are moderately absorbed (20 - 70%))”. In addition, the Papp at 90 min, 50 µM in data set [3] was 2.4 ± 4.2 ×10⁻⁶ cm/s.
On to `CCN(CC)CCCC(C)Nc1nc(C)cc(Nc2ccc3nc(C)cc(O)c3c2)n1` (centres unmarked) [CWB005/02039, 6-[2-(4-Diethylamino-1-methyl-butylamino)-6-methyl-pyrimidin-4-ylamino]-2-methyl-quinolin-4-ol], for which, on Rac1 (setting [4]), the remaining activity at 50 µM came out at 106%.
Consider `CCN(CC)CCCCNc1nc(C)cc(NCCc2c[nH]c3ccc(O)cc23)n1` [CWB026/02057, 3-{2-[2-(4-Diethylamino-butylamino)-6-methyl-pyrimidin-4-ylamino]-ethyl}-1H-indol-5-ol], for which the remaining activity at 100 µM at Rac1 (setting [5]) amounted to 108%.

The values are drawn from patent EP2241555A1, “New RAC1 inhibitors as potential pharmacological agents for heart failure treatment” (UNIVERSITA' DEGLI STUDI DI MILANO, priority 2009, dated 2010).
